Where two headings read alike, the source gives them in different places.
What was measured:
PSMA [1] = molecular target: T1, PSMA (Homo sapiens, UniProt Q04609); assay: Saturation binding assay of ^125I-MIP-1095 in 22Rv1 cells; conditions: saturation binding test
T1 construct: host or cells: 22Rv1 human prostate cancer cells (intact cells)
Procedure: The dissociation constant (Kd) of MIP-1095 was determined via a saturation binding assay. The saturation binding assay was performed as performed in a previous study. Briefly, the 22Rv1 cells (2 × 10^5) were aliquoted into wells in a 24-well plate and incubated with 0.7–17.5 nM (0.0037–0.1332 MBq) of ^125I-MIP-1095 at 37 °C for 1 h. To prevent nonspecific binding, 500 μM unlabeled MIP was added. Radioactivity was measured using 2480 WIZARD2 gamma counter (Perkin Elmer, Waltham, MA, USA). Statistical analysis was performed using Microsoft Excel.

[2] = Radiation-absorbed dose calculation (OLINDA/EXM) from normal mouse biodistribution; set-up: species or system human
Procedure: The biodistribution results of normal BALB/c mice were used to evaluate the human radiation-absorbed dose. The internal absorbed doses of ^64Cu-cudotadipep and ^64Cu-cunotadipep were evaluated using the residence time and total amount of radioactivity in the target organ of the mice. The internal absorbed dose of the mice was converted to the human dose based on the Medical Internal Radiation Dose schema, using OLINDA/EXM version 1.1 software.

PC3-PIP (PSMA+) cells = assay: Cell uptake in PC3-PIP cells; format: cell-based, human
Procedure: (§1) PC3-PIP or PC3-flu cells (1 × 10^6) were mixed with 3.7 MBq (100 μCi) of ^64Cu-cudotadipep or ^64Cu-cunotadipep and incubated at 37 °C and 5% CO2 for 2 h. Following incubation, the cells were washed with PBS twice and collected via centrifugation (2000 rpm, 5 min). Radioactivity was measured using 2480 WIZARD2 gamma counter (Perkin Elmer, Waltham, MA, USA). Percent (%) uptake was calculated using the ratio between the radioactivity of the cells and treated radioactivity.

PC3-flu (PSMA−) cells = assay: Cell uptake in PC3-flu cells; format: cell-based, human; conditions: 1 × 10^6 cells, 3.7 MBq, 2 h, 37 °C
Procedure: as §1

PC3-PIP tumor xenograft = assay: Biodistribution in PC3-PIP tumor-bearing nude mice; format: in vivo, mouse; conditions: tail vein
Procedure: All animal experiments followed the procedures approved by the Institutional Animal Care and Use Committee of Korea Institute of Radiological & Medical Sciences (approval No. KIRAMS2021-0044). Male BALB/c mice and athymic nude (Nu/Nu) BALB/c mice (weighing 20–25 g, 8 weeks old) were purchased from Nara Biotech (Seoul, Republic of Korea). PC3-PIP cells (1 × 10^7) were dispensed in 100 μL PBS, mixed with Matrigel, and subcutaneously implanted in the right thigh of male athymic nude (Nu/Nu) BALB/c mice. When the tumor reached 0.5–0.9 cm in diameter (2–3 weeks following implantation), biodistribution studies and PET imaging were performed.
(§2) Approximately 0.93 MBq ^64Cu-cudotadipep or ^64Cu-cunotadipep was injected via the tail vein into normal BALB/c mice or PC3-PIP tumor-bearing nude mice (n = 5/group). Normal and tumor-bearing mice were euthanized at 2, 6, 24, and 48 h following injection. Tumor and normal tissues were excised and weighed, and their radioactivity was measured using a gamma counter (2480 WIZARD2 gamma counter, Perkin Elmer, Waltham, MA, USA). The radioactivity measured in each tissue was expressed as a percentage of the injected dose per gram of tissue (%ID/g).

[3] = Biodistribution in normal BALB/c mice; format: in vivo, mouse; conditions: tail vein
Procedure: as §2

[4] = ^18F-labeled PSMA compounds; cited from earlier work
PSMA [5] = molecular target: T1, PSMA; assay: Competitive binding assay against ^125I-MIP-1095 in 22Rv1 cells
Procedure: The 22Rv1 cells (1 × 10^6 cells/well, 48-well plate) were washed with phosphate-buffered saline (PBS), and the culture medium was substituted with RPMI-1640 medium containing 1% bovine serum albumin. The cells were incubated for 1 h at 37 °C and 5% CO2 with unlabeled cudotadipep or cunotadipep (1.00 × 10^−4–1.00 × 10^−10 M) or 0.09–0.1 nM ^125I-(S)-2-(3-((S)-1-carboxy-5-(3-(4-iodophenyl)ureido)pentyl)ureido)pentanedioic acid (^125I-MIP-1095). The cells were washed twice in cold PBS and collected via centrifugation (2000 rpm, 5 min). Radioactivity was measured using 2480 WIZARD2 gamma counter (Perkin Elmer, Waltham, MA, USA). IC50 was calculated using Microsoft Excel and converted to Ki, using the Cheng–Prusoff equation [21].

T1 sequence (Q04609 whole entry): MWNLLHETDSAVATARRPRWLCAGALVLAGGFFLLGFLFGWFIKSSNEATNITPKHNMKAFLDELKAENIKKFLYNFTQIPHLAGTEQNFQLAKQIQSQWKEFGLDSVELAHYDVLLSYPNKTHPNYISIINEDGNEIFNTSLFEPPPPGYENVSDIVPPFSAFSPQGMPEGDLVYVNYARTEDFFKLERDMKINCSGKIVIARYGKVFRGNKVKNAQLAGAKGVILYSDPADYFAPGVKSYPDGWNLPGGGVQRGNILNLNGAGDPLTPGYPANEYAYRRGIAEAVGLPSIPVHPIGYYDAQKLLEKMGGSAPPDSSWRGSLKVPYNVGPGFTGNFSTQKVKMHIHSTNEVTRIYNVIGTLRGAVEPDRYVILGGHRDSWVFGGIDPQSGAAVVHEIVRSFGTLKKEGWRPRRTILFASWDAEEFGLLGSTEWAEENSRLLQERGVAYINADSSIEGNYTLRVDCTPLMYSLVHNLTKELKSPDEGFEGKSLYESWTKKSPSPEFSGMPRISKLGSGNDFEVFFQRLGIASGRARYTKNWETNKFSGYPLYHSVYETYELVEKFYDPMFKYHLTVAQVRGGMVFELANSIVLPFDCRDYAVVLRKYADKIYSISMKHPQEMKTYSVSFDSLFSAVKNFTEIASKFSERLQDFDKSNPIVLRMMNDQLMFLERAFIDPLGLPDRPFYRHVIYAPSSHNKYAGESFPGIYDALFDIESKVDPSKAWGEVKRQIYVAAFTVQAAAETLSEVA

## O=C(O)CC[C@H](NC(=O)N[C@@H](CCCCNC(=O)Nc1ccc(I)cc1)C(=O)O)C(=O)O [MIP-1095, ^125I-(S)-2-(3-((S)-1-carboxy-5-(3-(4-iodophenyl)ureido)pentyl)ureido)pentanedioic acid]
PSMA [1]
  Bmax: 0.25 nM
  Kd: 0.13 nM

## O=C([O-])CN1CCN(CC(=O)[O-])CCN(CC(=O)N[C@@H](CCCCNC(=O)CCCc2ccc(I)cc2)C(=O)NCCOCCOCC(=O)N(CCCC[C@H](NC(=O)N[C@@H](CCC(=O)O)C(=O)O)C(=O)O)CC(=O)O)CCN(CC(=O)[O-])CC1.[64Cu+2] [^64Cu-cudotadipep]
[2]; ICRP tissue-weighting factors, OLINDA/EXM, extrapolated from mouse biodistribution
  effective dose: 3.67 × 10^−1 mSv/MBq
[2]; adult males, extrapolated from normal BALB/c mouse biodistribution
  estimated radiation-absorbed dose, kidneys: 8.10 mGy/MBq
PC3-PIP (PSMA+) cells; PC3-PIP cells, 1 × 10^6 cells, 3.7 MBq, 2 h, 37 °C
  cellular uptake: 2.93 ± 0.06%
PC3-flu (PSMA−) cells
  cellular uptake: 0.44 ± 0.06%
PC3-PIP tumor xenograft; 2 h
  Biodistribution, Blood: 2.79 ± 1.90 %ID/g
  Biodistribution, Bone: 1.34 ± 0.23 %ID/g
  Biodistribution, Fat: 2.22 ± 1.07 %ID/g
  Biodistribution, Heart: 2.68 ± 0.45 %ID/g
  Biodistribution, Intestine: 5.19 ± 0.68 %ID/g
  Biodistribution, Kidney: 23.11 ± 4.11 %ID/g
  Biodistribution, Liver: 28.09 ± 3.73 %ID/g
  Biodistribution, Lung: 8.02 ± 1.49 %ID/g
  Biodistribution, Muscle: 0.78 ± 0.13 %ID/g
  Biodistribution, Spleen: 11.94 ± 3.50 %ID/g
  Biodistribution, Stomach: 2.35 ± 0.63 %ID/g
  Biodistribution, Tumor: 7.95 ± 1.58 %ID/g
PC3-PIP tumor xenograft; 6 h
  Biodistribution, Blood: 1.92 ± 0.53 %ID/g
  Biodistribution, Bone: 1.25 ± 0.20 %ID/g
  Biodistribution, Fat: 1.12 ± 0.79 %ID/g
  Biodistribution, Heart: 2.30 ± 0.30 %ID/g
  Biodistribution, Intestine: 4.55 ± 0.77 %ID/g
  Biodistribution, Kidney: 21.51 ± 3.13 %ID/g
  Biodistribution, Liver: 22.44 ± 2.56 %ID/g
  Biodistribution, Lung: 7.35 ± 3.45 %ID/g
  Biodistribution, Muscle: 0.40 ± 0.13 %ID/g
  Biodistribution, Spleen: 11.43 ± 5.81 %ID/g
  Biodistribution, Stomach: 2.18 ± 0.47 %ID/g
  Biodistribution, Tumor: 6.03 ± 3.20 %ID/g
PC3-PIP tumor xenograft; 24 h
  Biodistribution, Blood: 1.75 ± 0.41 %ID/g
  Biodistribution, Bone: 1.88 ± 0.35 %ID/g
  Biodistribution, Fat: 1.23 ± 0.52 %ID/g
  Biodistribution, Heart: 2.56 ± 0.49 %ID/g
  Biodistribution, Intestine: 4.17 ± 1.45 %ID/g
  Biodistribution, Kidney: 21.57 ± 6.53 %ID/g
  Biodistribution, Liver: 20.08 ± 4.40 %ID/g
  Biodistribution, Lung: 6.00 ± 0.85 %ID/g
  Biodistribution, Muscle: 0.69 ± 0.33 %ID/g
  Biodistribution, Spleen: 10.43 ± 1.98 %ID/g
  Biodistribution, Stomach: 2.66 ± 1.28 %ID/g
  Biodistribution, Tumor: 12.12 ± 1.17 %ID/g
PC3-PIP tumor xenograft; 48 h
  Biodistribution, Blood: 1.28 ± 0.24 %ID/g
  Biodistribution, Bone: 5.05 ± 6.09 %ID/g
  Biodistribution, Fat: 0.88 ± 0.42 %ID/g
  Biodistribution, Heart: 2.55 ± 0.12 %ID/g
  Biodistribution, Intestine: 2.56 ± 0.62 %ID/g
  Biodistribution, Kidney: 20.41 ± 3.03 %ID/g
  Biodistribution, Liver: 13.34 ± 0.55 %ID/g
  Biodistribution, Lung: 4.36 ± 0.62 %ID/g
  Biodistribution, Muscle: 0.98 ± 0.24 %ID/g
  Biodistribution, Spleen: 5.74 ± 1.34 %ID/g
  Biodistribution, Stomach: 1.72 ± 0.70 %ID/g
  Biodistribution, Tumor: 8.62 ± 0.44 %ID/g
[3]; 2 h
  Biodistribution, Blood: 4.27 ± 0.64 %ID/g
  Biodistribution, Bone: 1.09 ± 0.32 %ID/g
  Biodistribution, Brain: 0.26 ± 0.07 %ID/g
  Biodistribution, Fat: 1.26 ± 0.28 %ID/g
  Biodistribution, Heart: 3.02 ± 0.52 %ID/g
  Biodistribution, Intestine: 4.22 ± 0.57 %ID/g
  Biodistribution, Kidney: 45.74 ± 12.68 %ID/g
  Biodistribution, Liver: 16.12 ± 4.51 %ID/g
  Biodistribution, Lung: 5.16 ± 1.26 %ID/g
  Biodistribution, Muscle: 1.01 ± 0.15 %ID/g
  Biodistribution, Spleen: 6.80 ± 2.46 %ID/g
  Biodistribution, Stomach: 2.30 ± 0.60 %ID/g
[3]; 6 h
  Biodistribution, Blood: 2.04 ± 0.71 %ID/g
  Biodistribution, Bone: 1.10 ± 0.40 %ID/g
  Biodistribution, Brain: 0.25 ± 0.10 %ID/g
  Biodistribution, Fat: 0.72 ± 0.13 %ID/g
  Biodistribution, Heart: 2.67 ± 0.53 %ID/g
  Biodistribution, Intestine: 5.85 ± 2.69 %ID/g
  Biodistribution, Kidney: 56.43 ± 5.37 %ID/g
  Biodistribution, Liver: 19.13 ± 5.32 %ID/g
  Biodistribution, Lung: 5.77 ± 1.12 %ID/g
  Biodistribution, Muscle: 0.74 ± 0.18 %ID/g
  Biodistribution, Spleen: 7.09 ± 0.68 %ID/g
  Biodistribution, Stomach: 2.26 ± 1.59 %ID/g
[3]; 24 h
  Biodistribution, Blood: 2.01 ± 0.92 %ID/g
  Biodistribution, Bone: 0.94 ± 0.41 %ID/g
  Biodistribution, Brain: 0.37 ± 0.08 %ID/g
  Biodistribution, Fat: 0.70 ± 0.33 %ID/g
  Biodistribution, Heart: 2.91 ± 0.66 %ID/g
  Biodistribution, Intestine: 3.64 ± 0.83 %ID/g
  Biodistribution, Kidney: 41.77 ± 12.09 %ID/g
  Biodistribution, Liver: 16.15 ± 3.65 %ID/g
  Biodistribution, Lung: 5.56 ± 1.13 %ID/g
  Biodistribution, Muscle: 0.68 ± 0.18 %ID/g
  Biodistribution, Spleen: 4.14 ± 0.89 %ID/g
  Biodistribution, Stomach: 1.38 ± 0.15 %ID/g
[3]; 48 h
  Biodistribution, Blood: 1.22 ± 0.36 %ID/g
  Biodistribution, Bone: 0.96 ± 0.25 %ID/g
  Biodistribution, Brain: 0.44 ± 0.13 %ID/g
  Biodistribution, Fat: 0.51 ± 0.27 %ID/g
  Biodistribution, Heart: 2.72 ± 0.39 %ID/g
  Biodistribution, Intestine: 2.53 ± 0.54 %ID/g
  Biodistribution, Kidney: 24.37 ± 1.88 %ID/g
  Biodistribution, Liver: 13.48 ± 1.56 %ID/g
  Biodistribution, Lung: 4.66 ± 0.50 %ID/g
  Biodistribution, Muscle: 0.62 ± 0.12 %ID/g
  Biodistribution, Spleen: 2.73 ± 0.28 %ID/g
  Biodistribution, Stomach: 1.45 ± 0.65 %ID/g

## O=C(O)CC[C@H](NP(=O)(O)OCCC[C@H](NC(=O)CC[C@H](NC(=O)CCCCCNC(=O)c1ccc([18F])cc1)C(=O)O)C(=O)O)C(=O)O [^18F-CTT1057]
[4]
  effective dose: 2.28 × 10^−2 mSv/MBq

## O=C([O-])CN1CCN(CC(=O)[O-])CCN(CC(=O)N[C@@H](CCCCNC(=O)CCCc2ccc(I)cc2)C(=O)NCCOCCOCC(=O)N(CCCC[C@H](NC(=O)N[C@@H](CCC(=O)O)C(=O)O)C(=O)O)CC(=O)O)CCN(CC(=O)[O-])CC1.[Cu+2] [Cu-cudotadipep]
PSMA [5]; 22Rv1 cells, converted from IC50 with the Cheng–Prusoff equation using Kd of MIP-1095
  Ki: 6.75 ± 0.42 nM
PSMA [5]; cold forms, PSMA-expressing 22Rv1 cells, 1 h, 37 °C
  IC50: 16.8 ± 1.05 nM
PC3-PIP (PSMA+) cells; as given in the abstract
  cellular uptake: 2.93 ± 0.06 %/1 × 10^6 cells
